Earlier results in patent US11622956B1, “Compound and method for treating diseases and disorders” (priority 2019, dated 2023).

Tests used:
ataxia = conditions: high levels of hemp-derived CBD
[1] = oral
static ataxia = conditions: dogs, IV
joint pain = conditions: dogs

Compound: C=C(C)[C@@H]1CCC(C)=C[C@H]1c1c(O)cc(CCCCC)cc1O [CBD, Cannabidiol]
- dogs with ataxia (ataxia): 2 of the 10
- fraction of orally administered CBD ultimately absorbed, at best [1]: 15-20%
- fraction of orally administered CBD ultimately absorbed, on average [1]: 5-10%

Compound: CCCCCc1cc(O)c2c(c1)OC(C)(C)[C@@H]1CCC(C)=C[C@@H]21 [THC, tetrahydrocannabinol]
- dose producing static ataxia (static ataxia): > 0.5 mg/kg

Compound: COc1cccc(C2(O)CCCCC2CN(C)C)c1 (centres unmarked) [tramadol, Tramadol]
- peak vertical force or vertical impulse versus placebo (joint pain): no improvement
